The supplement of paper PMC4862054

What was measured:
Test in all cases: normalised response (% of control), CellTox Green; higher = less cell death (100 = DMSO, 0 = benzethonium chloride kill control)
Conditions in all cases: incubation time: 72 h
CAL-51 = system: CAL-51
In short: (§1)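 Plates were normalised with 0.1 % DMSO as 100 and a positive kill control as 0. Breast cancer cell lines in 20 µl suspension had been seeded into 384-well plates with compound at 5 concentrations in 10-fold steps over a compound-specific 10,000-fold range, incubated 72 h, and read for CellTox Green fluorescence (485/520 nm) followed by CellTiter-Glo luminescence. Each value is the normalised signal at a single concentration.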

BT-474 = system: BT-474
In short: as §1

MDA-MB-468 = system: MDA-MB-468
In short: as §1

HCC1143 = system: HCC1143
In short: as §1

CAL-85-1 = system: CAL-85-1
In short: as §1

MDA-MB-453 = system: MDA-MB-453
In short: as §1

CAL-148 = system: CAL-148
In short: as §1

HCC1937 = system: HCC1937
In short: as §1

HCC1599 = system: HCC1599
In short: as §1

CAL-120 = system: CAL-120
In short: as §1

DU-4475 = system: DU-4475
In short: as §1

HDQ-P1 = system: HDQ-P1
In short: as §1

Hs578T = system: Hs578T
In short: as §1

MDA-MB-436 = system: MDA-MB-436
In short: as §1

MFM-223 = system: MFM-223
In short: as §1

BT-549 = system: BT-549
In short: as §1

MDA-MB-231 = system: MDA-MB-231
In short: as §1

MCF-10A = system: MCF-10A
In short: as §1

In the case of `O=NN(CCCl)C(=O)NCCCl` [Carmustine] (10000 nM), the normalised response (CAL-51) is reported as 100%, the normalised response (BT-474) is reported as 98.8% and the normalised response (MDA-MB-468) is reported as 138%. It also gave a normalised response (HCC1143) of 54.2%, a normalised response (CAL-85-1) of 114% and a normalised response (MDA-MB-453) of 99.4%. For the same molecule, the normalised response (CAL-148) was 98.7%, the normalised response (HCC1937) was 86.4% and the normalised response (HCC1599) was 102%. For the same molecule, the normalised response (CAL-120) was 98.7%, the normalised response (DU-4475) was 95.3% and the normalised response (HDQ-P1) was 91.3%. It also gave a normalised response (Hs578T) of 100%, a normalised response (MDA-MB-436) of 88.9% and a normalised response (MFM-223) of 94.8%. For the same molecule, the normalised response (BT-549) was 84.3%, the normalised response (MDA-MB-231) was 96.9% and the normalised response (MCF-10A) was 104%.
Work on `Cn1cnc2c(F)c(Nc3ccc(Br)cc3Cl)c(C(=O)NOCCO)cc21` [Selumetinib] (1000 nM) yielded a normalised response (CAL-51) of 103%, a normalised response (BT-474) of 96.9% and a normalised response (MDA-MB-468) of 108%. It also gave a normalised response (HCC1143) of 70.1%, a normalised response (CAL-85-1) of 77.5% and a normalised response (MDA-MB-453) of 104%. For the same molecule, the normalised response (CAL-148) was 99.2%, the normalised response (HCC1937) was 88.9% and the normalised response (HCC1599) was 89.4%. It also gave a normalised response (CAL-120) of 81.4%, a normalised response (DU-4475) of 60.8% and a normalised response (HDQ-P1) of 77.2%. For the same molecule, the normalised response (Hs578T) was 100%, the normalised response (MDA-MB-436) was 80.4% and the normalised response (MFM-223) was 93.2%. The normalised response (BT-549) was 116%, the normalised response (MDA-MB-231) was 43.8% and the normalised response (MCF-10A) was 90.4%.
`CC1=C2C[C@H]3[C@@H](CC=C4C[C@@H](O)CC[C@@]43C)[C@@H]2CC[C@]12O[C@@H]1C[C@H](C)CN[C@H]1[C@H]2C` [Cyclopamine] (10000 nM) was tested, and the normalised response (CAL-51) was 98.9%, the normalised response (BT-474) was 98% and the normalised response (MDA-MB-468) was 155%. The normalised response (CAL-85-1) was 66.8%, the normalised response (MDA-MB-453) was 103% and the normalised response (CAL-148) was 100%. The normalised response (HCC1599) was 101%, the normalised response (CAL-120) was 97.8% and the normalised response (DU-4475) was 103%. It also gave a normalised response (HDQ-P1) of 110%, a normalised response (Hs578T) of 51.4% and a normalised response (MDA-MB-436) of 92.2%. The normalised response (MFM-223) was 89.6%, the normalised response (BT-549) was 59% and the normalised response (MDA-MB-231) was 116%. It also gave a normalised response (MCF-10A) of 58.9%.
For `CC1=C2C[C@H]3[C@@H](CC=C4C[C@@H](O)CC[C@@]43C)[C@@H]2CC[C@]12O[C@@H]1C[C@H](C)CN[C@H]1[C@H]2C` [Cyclopamine] (1000 nM), the normalised response (CAL-51) was 95.5%, the normalised response (BT-474) was 101% and the normalised response (MDA-MB-468) was 78.1%. For the same molecule, the normalised response (HCC1143) was 100%, the normalised response (CAL-85-1) was 101% and the normalised response (MDA-MB-453) was 103%. The normalised response (CAL-148) was 95.1%, the normalised response (HCC1937) was 70% and the normalised response (HCC1599) was 104%. The normalised response (CAL-120) was 101%, the normalised response (DU-4475) was 101% and the normalised response (HDQ-P1) was 96.9%. The normalised response (Hs578T) was 104%, the normalised response (MDA-MB-436) was 99.3% and the normalised response (MFM-223) was 75.1%. For the same molecule, the normalised response (BT-549) was 108%, the normalised response (MDA-MB-231) was 119% and the normalised response (MCF-10A) was 108%.
In the case of `Cc1sc2c(c1C)C(c1ccc(Cl)cc1)=N[C@@H](CC(=O)OC(C)(C)C)c1nnc(C)n1-2` [(+)JQ1] (10000 nM), the normalised response (CAL-51) is reported as 14.5%, the normalised response (BT-474) is reported as 92.8% and the normalised response (MDA-MB-468) is reported as -39.7%. For the same molecule, the normalised response (HCC1143) was 123%, the normalised response (CAL-85-1) was 24% and the normalised response (MDA-MB-453) was 102%. For the same molecule, the normalised response (CAL-148) was 50.8%, the normalised response (HCC1937) was 68.2% and the normalised response (HCC1599) was 87.9%. It also gave a normalised response (CAL-120) of 91.3%, a normalised response (DU-4475) of 81.4% and a normalised response (HDQ-P1) of 87.6%. For the same molecule, the normalised response (Hs578T) was 100%, the normalised response (MDA-MB-436) was 72.9% and the normalised response (MFM-223) was 97.8%. The normalised response (BT-549) was 66.8%, the normalised response (MDA-MB-231) was 62.5% and the normalised response (MCF-10A) was 101%.
`Oc1ncnc2[nH]ncc12` [Allopurinol] (1000 nM) gave a normalised response (CAL-51) of 118%, a normalised response (BT-474) of 100% and a normalised response (MDA-MB-468) of 80.5%. For the same molecule, the normalised response (CAL-85-1) was 99%, the normalised response (MDA-MB-453) was 63% and the normalised response (CAL-148) was 106%. The normalised response (HCC1937) was 89.9%, the normalised response (HCC1599) was 97% and the normalised response (CAL-120) was 95%. It also gave a normalised response (DU-4475) of 96.8%, a normalised response (HDQ-P1) of 106% and a normalised response (Hs578T) of 101%. For the same molecule, the normalised response (MDA-MB-436) was 107%, the normalised response (MFM-223) was 103% and the normalised response (BT-549) was 103%. For the same molecule, the normalised response (MCF-10A) was 94.7%.
`CC1(C)CNc2cc(NC(=O)c3cccnc3NCc3ccncc3)ccc21` [Motesanib] (1000 nM) showed a normalised response (CAL-51) of 96.1%, a normalised response (BT-474) of 98% and a normalised response (MDA-MB-468) of 108%. For the same molecule, the normalised response (HCC1143) was 103%, the normalised response (CAL-85-1) was 91.8% and the normalised response (MDA-MB-453) was 101%. The normalised response (CAL-148) was 103%, the normalised response (HCC1599) was 97.3% and the normalised response (CAL-120) was 99.5%. The normalised response (DU-4475) was 100%, the normalised response (HDQ-P1) was 108% and the normalised response (Hs578T) was 83.6%. For the same molecule, the normalised response (MDA-MB-436) was 79%, the normalised response (MFM-223) was 97% and the normalised response (BT-549) was 123%. It also gave a normalised response (MDA-MB-231) of 97.7% and a normalised response (MCF-10A) of 95.4%.
Work on `CC[C@@H]1C(=O)OC[C@@H]1Cc1cncn1C` [Pilocarpine] (40000 nM) yielded a normalised response (CAL-51) of 98.4%, a normalised response (BT-474) of 98.6% and a normalised response (HCC1143) of 80.7%. For the same molecule, the normalised response (CAL-85-1) was 114%, the normalised response (MDA-MB-453) was 93.9% and the normalised response (CAL-148) was 96.3%. The normalised response (HCC1937) was 97.7%, the normalised response (HCC1599) was 97% and the normalised response (CAL-120) was 52.5%. It also gave a normalised response (DU-4475) of 96.7%, a normalised response (MDA-MB-436) of 92.3% and a normalised response (MFM-223) of 97.4%. For the same molecule, the normalised response (BT-549) was 107%, the normalised response (MDA-MB-231) was 93.1% and the normalised response (MCF-10A) was 83.9%.
`Nc1nc2[nH]cnc2c(=S)[nH]1` [Thioguanine] (1000 nM) gave a normalised response (CAL-51) of 102%, a normalised response (BT-474) of 96.4% and a normalised response (MDA-MB-468) of 121%. For the same molecule, the normalised response (CAL-85-1) was 112%, the normalised response (MDA-MB-453) was 106% and the normalised response (CAL-148) was 94%. The normalised response (HCC1937) was 114%, the normalised response (HCC1599) was 97.8% and the normalised response (CAL-120) was 103%. It also gave a normalised response (DU-4475) of 104%, a normalised response (HDQ-P1) of 109% and a normalised response (Hs578T) of 103%. It also gave a normalised response (MDA-MB-436) of 101%, a normalised response (MFM-223) of 92.8% and a normalised response (BT-549) of 108%. The normalised response (MDA-MB-231) was 48.4% and the normalised response (MCF-10A) was 98.7%.
`Nc1ncn([C@@H]2O[C@H](CO)[C@@H](O)[C@H]2O)c(=O)n1` [Azacitidine] (1000 nM) gave a normalised response (CAL-51) of 105%, a normalised response (BT-474) of 80.4% and a normalised response (MDA-MB-468) of 33.9%. It also gave a normalised response (CAL-85-1) of 98.4%, a normalised response (MDA-MB-453) of 110% and a normalised response (CAL-148) of 84.3%. For the same molecule, the normalised response (HCC1599) was 96.4%, the normalised response (CAL-120) was 101% and the normalised response (DU-4475) was 97%. For the same molecule, the normalised response (HDQ-P1) was 59.9%, the normalised response (MDA-MB-436) was 97.7% and the normalised response (MFM-223) was 89.6%. It also gave a normalised response (BT-549) of 108%, a normalised response (MDA-MB-231) of 93.2% and a normalised response (MCF-10A) of 101%.
For `O=C1CN2Cc3c(ccc(Cl)c3Cl)N=C2N1` [Anagrelide] (1000 nM), the normalised response (CAL-51) was 59.7%, the normalised response (BT-474) was 97% and the normalised response (MDA-MB-468) was 137%. It also gave a normalised response (CAL-85-1) of 103%, a normalised response (MDA-MB-453) of 105% and a normalised response (CAL-148) of 56.1%. For the same molecule, the normalised response (HCC1937) was 88.6%, the normalised response (HCC1599) was 94.3% and the normalised response (CAL-120) was 97.8%. The normalised response (DU-4475) was 97.4%, the normalised response (Hs578T) was 83.8% and the normalised response (MDA-MB-436) was 87.3%. The normalised response (MFM-223) was 102%, the normalised response (BT-549) was 97% and the normalised response (MDA-MB-231) was 86.2%. The normalised response (MCF-10A) was 104%.
With `CC[C@@H]1C(=O)OC[C@@H]1Cc1cncn1C` [Pilocarpine] (4000 nM) the normalised response (CAL-51) was 104%, the normalised response (BT-474) was 96% and the normalised response (MDA-MB-468) was 66.5%. It also gave a normalised response (HCC1143) of 72.1%, a normalised response (CAL-85-1) of 95.5% and a normalised response (MDA-MB-453) of 101%. It also gave a normalised response (CAL-148) of 73.7%, a normalised response (HCC1599) of 92.5% and a normalised response (CAL-120) of 99.3%. It also gave a normalised response (DU-4475) of 95.3%, a normalised response (Hs578T) of 70.9% and a normalised response (MDA-MB-436) of 81.4%. It also gave a normalised response (MFM-223) of 69.2%, a normalised response (BT-549) of 112% and a normalised response (MDA-MB-231) of 97.8%. The normalised response (MCF-10A) was 101%.
